{"source": "ChEMBL document CHEMBL5046311", "about": "“Photoaffinity Probe Reveals the Potential Target of Harringtonolide for Cancer Cell Migration Inhibition” (ACS Med Chem Lett, 2022)", "key": {"A-375 [1]": {"system": "A-375", "test": "Antiproliferative activity against human A-375 cells assessed as reduction in cell viability at 1.5625 to 50 uM after 24 hrs by MTT assay", "format": "functional, cell-based", "conditions": "dose 1.5625-50 µM"}, "[2]": {"test": "Stability of the compound in DMEM medium with 10% fetal bovine serum assessed as parent compound remaining at 200 uM incubated upto 24 hrs by HLPC analysis", "format": "ADME, cell-free", "conditions": "cattle, read-out: Stability"}, "A-375 [3]": {"system": "A-375", "test": "Binding affinity to RACK1 in human A-375 cells at 10 uM preincubated for 4 hrs followed by irradiation with UV for 30 mins measured by Western blotting based pull-down assay", "format": "cell-based", "conditions": "time 4.5 hrs"}, "A-375 [4]": {"system": "A-375", "test": "Binding affinity to RACK1 in human A-375 cells at 10 uM preincubated for 4 hrs in the presence of harringtonolide followed by irradiation with UV for 30 mins measured by Western blotting based pull-down assay", "format": "cell-based", "conditions": "time 4.5 hrs"}, "[5]": {"test": "Drug degradation in DMEM medium with 10% fetal bovine serum assessed as compound hydrolysis at 200 uM incubated upto 24 hrs by HLPC analysis", "format": "ADME, cell-free", "conditions": "cattle, read-out: Drug degradation"}, "A-375 [6]": {"system": "A-375", "test": "Inhibition of cell migration in human A-375 cells at measured after 24 hrs by phase contrast microscopy based wound healing assay", "format": "functional", "conditions": "dose 0.5-2 µM"}, "A-375 [7]": {"system": "A-375", "test": "Inhibition of cell invasion in human A-375 cells at measured after 24 hrs by crystal violet staining based imaging analysis", "format": "functional", "conditions": "dose 0.5-2 µM"}, "A-375 [8]": {"system": "A-375", "test": "Antiproliferative activity against human A-375 cells assessed as reduction in cell viability upto 50 uM after 24 hrs by MTT assay", "format": "functional, cell-based", "conditions": "dose microM <=50, time 24.0 hrs"}, "A-375 [9]": {"system": "A-375", "test": "Inhibition of RACK1-FAK protein-protein interaction in human A-375 cells measured after 24 hrs by co-immunoprecipitation assay", "format": "cell-based", "conditions": "dose 2-4 µM"}, "A-375 [10]": {"system": "A-375", "test": "Inhibition of epithelial-mesenchymal transition in human A-375 cells assessed as downregulation of N-cadherin expression at 0.5 to 4 uM measured after 24 hrs by Western blotting analysis", "format": "functional, cell-based", "conditions": "dose 0.5-4 µM"}, "A-375 [11]": {"system": "A-375", "test": "Inhibition of epithelial-mesenchymal transition in human A-375 cells assessed as downregulation of Snail expression at 0.5 to 4 uM measured after 24 hrs by Western blotting analysis", "format": "functional, cell-based", "conditions": "dose 0.5-4 µM"}, "[12]": {"target": "Focal adhesion kinase 1 (Homo sapiens) (UniProt Q05397)", "sequence (Q05397 2-1052 limits assumed)": "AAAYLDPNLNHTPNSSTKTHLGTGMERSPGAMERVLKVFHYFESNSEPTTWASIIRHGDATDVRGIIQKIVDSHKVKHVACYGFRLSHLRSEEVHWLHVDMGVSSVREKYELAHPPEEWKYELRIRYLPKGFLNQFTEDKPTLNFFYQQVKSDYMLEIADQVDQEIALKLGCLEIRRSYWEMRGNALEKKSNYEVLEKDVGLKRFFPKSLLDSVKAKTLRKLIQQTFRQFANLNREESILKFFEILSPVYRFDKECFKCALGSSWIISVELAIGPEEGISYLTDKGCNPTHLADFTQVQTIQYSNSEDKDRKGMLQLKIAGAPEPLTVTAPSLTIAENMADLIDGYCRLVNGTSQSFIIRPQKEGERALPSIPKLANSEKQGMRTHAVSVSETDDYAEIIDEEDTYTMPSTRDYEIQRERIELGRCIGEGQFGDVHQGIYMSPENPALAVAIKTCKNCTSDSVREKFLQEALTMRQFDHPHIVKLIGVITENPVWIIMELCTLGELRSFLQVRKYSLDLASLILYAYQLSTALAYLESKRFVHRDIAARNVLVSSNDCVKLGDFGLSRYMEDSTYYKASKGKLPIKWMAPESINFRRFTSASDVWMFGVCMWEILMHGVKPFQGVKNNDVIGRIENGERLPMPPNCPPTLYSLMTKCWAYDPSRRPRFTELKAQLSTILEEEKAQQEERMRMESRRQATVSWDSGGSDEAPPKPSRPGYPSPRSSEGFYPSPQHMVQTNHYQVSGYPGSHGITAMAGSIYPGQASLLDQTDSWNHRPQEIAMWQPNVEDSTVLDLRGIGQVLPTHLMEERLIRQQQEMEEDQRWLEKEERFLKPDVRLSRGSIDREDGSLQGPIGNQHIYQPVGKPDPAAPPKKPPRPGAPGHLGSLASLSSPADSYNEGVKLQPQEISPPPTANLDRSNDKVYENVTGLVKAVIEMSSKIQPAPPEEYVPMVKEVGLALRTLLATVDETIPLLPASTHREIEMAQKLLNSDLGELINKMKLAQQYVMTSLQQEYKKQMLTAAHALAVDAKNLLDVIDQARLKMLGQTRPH", "test": "Inhibition of FAK in human A-375 cells assessed as reduction in Src activation at 0.5 to 4 uM measured after 24 hrs by Western blotting analysis", "format": "cell-based", "conditions": "dose 0.5-4 µM"}, "[13]": {"target": "Signal transducer and activator of transcription 3 (Homo sapiens) (UniProt P40763)", "sequence (P40763 whole entry)": "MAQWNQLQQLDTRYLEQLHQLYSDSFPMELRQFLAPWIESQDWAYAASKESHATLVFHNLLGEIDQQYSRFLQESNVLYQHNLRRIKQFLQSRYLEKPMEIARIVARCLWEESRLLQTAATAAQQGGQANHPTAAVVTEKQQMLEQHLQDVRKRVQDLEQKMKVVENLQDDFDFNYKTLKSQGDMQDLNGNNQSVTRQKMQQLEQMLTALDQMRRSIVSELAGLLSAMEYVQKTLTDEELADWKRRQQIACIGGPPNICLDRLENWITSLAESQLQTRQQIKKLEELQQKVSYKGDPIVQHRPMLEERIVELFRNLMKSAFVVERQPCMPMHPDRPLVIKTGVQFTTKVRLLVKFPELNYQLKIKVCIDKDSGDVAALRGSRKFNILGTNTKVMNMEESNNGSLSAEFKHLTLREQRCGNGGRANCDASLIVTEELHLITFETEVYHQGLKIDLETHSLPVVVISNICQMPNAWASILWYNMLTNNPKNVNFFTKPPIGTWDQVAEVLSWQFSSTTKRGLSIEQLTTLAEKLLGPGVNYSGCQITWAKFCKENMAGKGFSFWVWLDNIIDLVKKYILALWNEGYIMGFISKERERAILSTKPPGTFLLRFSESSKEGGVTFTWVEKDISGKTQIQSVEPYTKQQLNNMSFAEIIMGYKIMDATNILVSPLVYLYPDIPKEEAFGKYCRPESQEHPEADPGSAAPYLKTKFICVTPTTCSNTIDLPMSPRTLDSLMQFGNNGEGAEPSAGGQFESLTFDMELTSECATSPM", "test": "Inhibition of STAT3 in human A-375 cells assessed as decrease in c-Myc protein level at 0.5 to 4 uM measured after 24 hrs by western blot analysis", "format": "cell-based", "conditions": "dose 0.5-4 µM"}, "[14]": {"target": "Focal adhesion kinase 1 (Homo sapiens) (UniProt Q05397)", "test": "Inhibition of FAK phosphorylation in human A-375 cells measured after 24 hrs by Western blotting analysis", "format": "cell-based", "conditions": "dose 0.5-4 µM"}, "[15]": {"target": "Signal transducer and activator of transcription 3 (Homo sapiens) (UniProt P40763)", "test": "Inhibition of STAT3 in human A-375 cells assessed as decrease in Bcl2 protein level at 0.5 to 4 uM measured after 24 hrs by western blot analysis", "format": "cell-based", "conditions": "dose 0.5-4 µM"}, "A-375 [16]": {"system": "A-375", "test": "Binding affinity to RACK1 in human A-375 cells assessed as prevention of pronase-mediated protein degradation at 5 to 20 uM preincubated for 60 mins followed by enzyme addition and measured after 25 mins by immunoblotting based DARTS assay", "format": "cell-based", "conditions": "dose 5-20 µM, time 85.0 min"}, "A-375 [17]": {"system": "A-375", "test": "Inhibition of epithelial-mesenchymal transition in human A-375 cells assessed as upregulation of E-cadherin expression at 0.5 to 4 uM measured after 24 hrs by Western blotting analysis", "format": "functional, cell-based", "conditions": "dose 0.5-4 µM"}, "A-375 [18]": {"system": "A-375", "test": "Binding affinity to RACK1 in human A-375 cells assessed as prevention of temperature dependent protein degradation at 10 uM preincubated for 60 mins at room temperature followed by heat treatment at 45 to 63 degree C for 5 mins measured by immunoblotting based cellular thermal shift assay", "format": "cell-based"}, "A-375 [19]": {"system": "A-375", "test": "Antiproliferative activity against human A-375 cells assessed as reduction in cell viability after 24 hrs by MTT assay", "format": "functional, cell-based", "conditions": "A-375, 24 h"}, "[20]": {"target": "Focal adhesion kinase 1 (Homo sapiens) (UniProt Q05397)", "test": "Inhibition of FAK in human A-375 cells assessed as reduction in STAT3 activation at 0.5 to 4 uM measured after 24 hrs by Western blotting analysis", "format": "cell-based", "conditions": "dose 0.5-4 µM"}}, "note": "Activity calls are given as the source filed them. The rule behind the calls is not given here.", "data": [{"smiles": "Cc1cc(=O)cc2c3c1[C@@H]1O[C@H]4[C@@H]5OC(=O)[C@](C[C@@H]2OC(=O)COCCOCCNC(=O)CCCC[C@@H]2SC[C@@H]6NC(=O)N[C@@H]62)([C@@H]4C)[C@H]3[C@@H]51", "values": [{"measurement": "Activity", "setting": "A-375 [1]", "value": "Active"}, {"measurement": "remaining at 24 h, 200 µM", "setting": "[2]", "value": 59.2, "unit": "%"}]}, {"smiles": "C#CCCC1(CCC(=O)O[C@H]2C[C@]34C(=O)O[C@H]5[C@H](O[C@H]6c7c(C)cc(=O)cc2c7[C@@H]3[C@@H]56)[C@H]4C)N=N1", "values": [{"measurement": "Activity", "setting": "A-375 [3]", "value": "Active"}, {"measurement": "Activity", "setting": "A-375 [1]", "value": "Active"}, {"measurement": "Activity", "setting": "A-375 [4]", "value": "inactive"}, {"measurement": "degraded at 24 h, 200 µM", "setting": "[5]", "value": 13.6, "unit": "%"}, {"measurement": "inhibition", "setting": "A-375 [6]", "value": "Dose-Dependent Effect"}, {"measurement": "inhibition", "setting": "A-375 [7]", "value": "Dose-Dependent Effect"}]}, {"smiles": "Cc1cc(=O)cc2c3c1[C@@H]1O[C@H]4[C@@H]5OC(=O)[C@](C[C@@H]2OC(=O)COCCOCCOCCOCCNC(=O)CCCC[C@@H]2SC[C@@H]6NC(=O)N[C@@H]62)([C@@H]4C)[C@H]3[C@@H]51", "values": [{"measurement": "Activity", "setting": "A-375 [8]", "value": "inactive"}]}, {"smiles": "Cc1cc(=O)cc2c3c1[C@@H]1O[C@H]4[C@@H]5OC(=O)[C@](CC2)([C@@H]4C)[C@H]3[C@@H]51", "note": "[HAINANOLIDE]", "values": [{"measurement": "inhibition", "setting": "A-375 [9]", "value": "Dose-Dependent Effect"}, {"measurement": "inhibition", "setting": "A-375 [10]", "value": "Active"}, {"measurement": "inhibition", "setting": "A-375 [11]", "value": "Active"}, {"measurement": "inhibition", "setting": "[12]", "value": "Active"}, {"measurement": "inhibition", "setting": "[13]", "value": "Active"}, {"measurement": "inhibition", "setting": "[14]", "value": "Dose-Dependent Effect"}, {"measurement": "inhibition", "setting": "[15]", "value": "Active"}, {"measurement": "Activity", "setting": "A-375 [16]", "value": "Active"}, {"measurement": "inhibition", "setting": "A-375 [17]", "value": "Active"}, {"measurement": "Activity", "setting": "A-375 [18]", "value": "Active"}, {"measurement": "inhibition", "setting": "A-375 [6]", "value": "Dose-Dependent Effect"}, {"measurement": "IC50", "setting": "A-375 [19]", "value": 39.7, "unit": "µM"}, {"measurement": "inhibition", "setting": "A-375 [7]", "value": "Dose-Dependent Effect"}, {"measurement": "inhibition", "setting": "[20]", "value": "Active"}]}]}
